{
  "source": "ChEMBL document CHEMBL1146385",
  "about": "“Discovery of novel phenoxyacetic acid derivatives as antimycobacterial agents” (2007)",
  "tested_on": "Mycobacterium tuberculosis",
  "experiment": "Antimycobacterial activity against Mycobacterium tuberculosis H37Rv ATCC 27294 by broth micro dilution assay",
  "type": "functional",
  "data": [
    {"smiles": "COc1cc(C2=NN(C(N)=S)C(Cc3ccccc3)C2)ccc1OCC(=O)O", "note": "(configuration not stated)", "values": [
      {"measurement": "MIC", "value": 6.25, "unit": "µg/mL"}
    ]},
    {"smiles": "COc1cc(C2=NN(C(N)=S)C(c3ccccc3O)C2)ccc1OCC(=O)O", "note": "(configuration not stated)", "values": [
      {"measurement": "MIC", "value": 0.58, "unit": "µg/mL"}
    ]},
    {"smiles": "COc1cc(C2=NN(C(N)=O)C(c3ccccc3)C2)ccc1OCC(=O)O", "note": "(configuration not stated)", "values": [
      {"measurement": "MIC", "value": 6.25, "unit": "µg/mL"}
    ]},
    {"smiles": "COc1cc(C2=NN(C(N)=O)C(c3ccc(C)cc3)C2)ccc1OCC(=O)O", "note": "(configuration not stated)", "values": [
      {"measurement": "MIC", "value": 4.12, "unit": "µg/mL"}
    ]},
    {"smiles": "COc1cc(C2=NN(C(N)=S)C(c3ccc(O)cc3)C2)ccc1OCC(=O)O", "note": "(configuration not stated)", "values": [
      {"measurement": "MIC", "value": 0.2, "unit": "µg/mL"}
    ]},
    {"smiles": "COc1cc(C2=NN(C(N)=O)C(c3ccccc3Cl)C2)ccc1OCC(=O)O", "note": "(configuration not stated)", "values": [
      {"measurement": "MIC", "value": 1.26, "unit": "µg/mL"}
    ]},
    {"smiles": "COc1cc(C2=NN(C(N)=O)C(c3ccc(N)cc3)C2)ccc1OCC(=O)O", "note": "(configuration not stated)", "values": [
      {"measurement": "MIC", "value": 5.32, "unit": "µg/mL"}
    ]},
    {"smiles": "COc1cc(C2=NN(C(N)=S)C(c3ccc(C)cc3)C2)ccc1OCC(=O)O", "note": "(configuration not stated)", "values": [
      {"measurement": "MIC", "value": 6.15, "unit": "µg/mL"}
    ]},
    {"smiles": "COc1cc(C2=NN(C(N)=S)C(c3ccc(Cl)cc3)C2)ccc1OCC(=O)O", "note": "(configuration not stated)", "values": [
      {"measurement": "MIC", "value": 0.06, "unit": "µg/mL"}
    ]},
    {"smiles": "COc1cc(C2=NN(C(N)=S)C(c3ccccc3Cl)C2)ccc1OCC(=O)O", "note": "(configuration not stated)", "values": [
      {"measurement": "MIC", "value": 0.12, "unit": "µg/mL"}
    ]},
    {"smiles": "COc1cc(C2=NN(C(N)=O)C(c3ccc(F)cc3)C2)ccc1OCC(=O)O", "note": "(configuration not stated)", "values": [
      {"measurement": "MIC", "value": 3.16, "unit": "µg/mL"}
    ]},
    {"smiles": "COc1cc(C2=NN(C(N)=O)C(c3ccc(Cl)cc3)C2)ccc1OCC(=O)O", "note": "(configuration not stated)", "values": [
      {"measurement": "MIC", "value": 0.13, "unit": "µg/mL"}
    ]},
    {"smiles": "COc1cc(C2=NN(C(N)=O)C(Cc3ccccc3)C2)ccc1OCC(=O)O", "note": "(configuration not stated)", "values": [
      {"measurement": "MIC", "value": 6.25, "unit": "µg/mL"}
    ]},
    {"smiles": "COc1cc(C2=NN(C(N)=S)C(c3ccc(N)cc3)C2)ccc1OCC(=O)O", "note": "(configuration not stated)", "values": [
      {"measurement": "MIC", "value": 12.5, "unit": "µg/mL"}
    ]},
    {"smiles": "COc1cc(C2=NN(C(N)=S)C(c3cccc([N+](=O)[O-])c3)C2)ccc1OCC(=O)O", "note": "(configuration not stated)", "values": [
      {"measurement": "MIC", "value": 6.25, "unit": "µg/mL"}
    ]},
    {"smiles": "COc1cc(C2=NN(C(N)=S)C(c3ccccc3)C2)ccc1OCC(=O)O", "note": "(configuration not stated)", "values": [
      {"measurement": "MIC", "value": 6.25, "unit": "µg/mL"}
    ]},
    {"smiles": "COc1cc(C2=NN(C(N)=O)C(c3ccccc3O)C2)ccc1OCC(=O)O", "note": "(configuration not stated)", "values": [
      {"measurement": "MIC", "value": 0.58, "unit": "µg/mL"}
    ]},
    {"smiles": "COc1cc(C2=NN(C(N)=O)C(c3cccc([N+](=O)[O-])c3)C2)ccc1OCC(=O)O", "note": "(configuration not stated)", "values": [
      {"measurement": "MIC", "value": 6.25, "unit": "µg/mL"}
    ]},
    {"smiles": "COc1cc(C2=NN(C(N)=S)C(c3ccc(F)cc3)C2)ccc1OCC(=O)O", "note": "(configuration not stated)", "values": [
      {"measurement": "MIC", "value": 0.96, "unit": "µg/mL"}
    ]},
    {"smiles": "COc1cc(C2=NN(C(N)=O)C(c3ccc(O)cc3)C2)ccc1OCC(=O)O", "note": "(configuration not stated)", "values": [
      {"measurement": "MIC", "value": 1.23, "unit": "µg/mL"}
    ]},
    {"smiles": "COc1cc(C2=NN(C(N)=O)C(c3ccc([N+](=O)[O-])cc3)C2)ccc1OCC(=O)O", "note": "(configuration not stated)", "values": [
      {"measurement": "MIC", "value": 6.25, "unit": "µg/mL"}
    ]},
    {"smiles": "COc1cc(C2=NN(C(N)=S)C(c3ccc([N+](=O)[O-])cc3)C2)ccc1OCC(=O)O", "note": "(configuration not stated)", "values": [
      {"measurement": "MIC", "value": 6.32, "unit": "µg/mL"}
    ]}
  ]
}
